Data: paper PMC4830977 (Scientific Reports, 2016)
Several values for one entry are separate records, joined by “and”; a condition that tells them apart may be missing. Equal values may be shown once. Read-outs that look alike come from different tables or passages of the source.

Assays:
TSP4 = assay: 3H-gabapentin binding to membranes of tsA-201 cells expressing only TSP4 (control); settings: 1 experiment in triplicate
Description: Each experiment was carried out in triplicate, and the mean value used for subsequent analysis.
Harvesting of the samples was performed by filtration through GF/B filter papers (Whatman, GE Healthcare) pre-soaked in 0.3% polyethyleneimine solution, in order to reduce non-specific binding to the filter paper. The samples were transferred to the filters by washing the tubes three times with Tris-HCl (100 mM, pH 7.4, Sigma 7–9) using a Brandel Harvester (Brandel). The GF/B filter papers were then cut out and transferred to vials containing 5 ml of scintillant (Liquid scintillant cocktail, Beckman Coulter). Samples were equilibrated for 18 h and then the activity was counted in triplicate in a scintillation counter (Beckman Coulter) for 10 min per sample.

α2δ-1-MIDAS^AAA = assay: [3H]-gabapentin saturation binding to membranes of tsA-201 cells expressing α2δ-1 MIDAS mutant
Description: Cell membrane and DRM fractions were prepared essentially as described previously. Cultured tsA-201 cells were washed twice in ice-cold PBS and then left in ice-cold PBS containing Complete protease inhibitor cocktail (Roche, concentration according to manufacturer’s instructions) for 5 min. Cells were gently washed off the bottom of the flask and pelleted at 2000 × g for 10 min. Pellets were kept on ice if used immediately, or stored at −20 °C until required. For brain membranes, adult male Sprague Dawley rats (200–250 g) were euthanised by CO2 inhalation and then decapitated. The whole brain minus cerebellum was homogenised on ice in a buffer containing the following (in mM): 20 HEPES, pH 7.4, 2 EDTA, EDTA-free protease inhibitor cocktail (Roche, concentration according to manufacturer’s instructions).
For membrane preparation, pellets obtained from cell harvesting, resuspended in ice-cold 10 mM Hepes plus protease inhibitors (pH 7.4), or brain homogenate, were mechanically lysed by 10–15 passages through a 23 gauge needle. Cell debris and non-lysed cells were pelleted for 15 min at 1,000 × g. The supernatant obtained was transferred to a 30 ml thick-walled ultracentrifuge tube (Beckman-Coulter). Membranes were pelleted in an ultracentrifuge (Beckman-Coulter) for 90 min at 60,000 × g, and resuspended as required. Aliquots were used to determine the protein concentration.

TSP4-EGF = assay: 3H-gabapentin binding to TSP4-EGF alone (control); settings: control experiment, data not shown
[1] = system: synaptogenic domain of TSP2 and α2δ-1; settings: co-expressed in HEK-293 cells; cited from earlier work
[2] = α2δ-1-MIDAS^AAA + TSP4 with EDTA, n = 3 (Fig. 1F)
[3] = α2δ-1-MIDAS^AAA + TSP4 with Mg2+, n = 3 (Fig. 1F)
[4] = α2δ-1-MIDAS^AAA with EDTA, n = 3 (Fig. 1F)

Compound	binding to TSP4 alone (TSP4)	nH (α2δ-1-MIDAS^AAA)	mean Bmax (α2δ-1-MIDAS^AAA; [2])	nH (α2δ-1-MIDAS^AAA; [2])	mean Bmax (α2δ-1-MIDAS^AAA; [3])	nH (α2δ-1-MIDAS^AAA; [3])	mean Bmax (α2δ-1-MIDAS^AAA; [4])	nH (α2δ-1-MIDAS^AAA; [4])	Kd (α2δ-1-MIDAS^AAA; α2δ-1-MIDAS^AAA with Mg2+, n = 2 (Fig. 1F), read-out: KD, individual values)	mean Bmax (α2δ-1-MIDAS^AAA; α2δ-1-MIDAS^AAA with Mg2+, n = 2, individual values 0.53, 0.38 (Fig. 1F))	binding affinity compared with WT α2δ-1 (α2δ-1-MIDAS^AAA; α2δ-1 MIDAS^AAA (Fig. 1F))	binding to TSP4-EGF alone (TSP4-EGF)	effect on co-immunoprecipitation between synaptogenic domain of TSP2 and α2δ-1 [1]
NCC1(CC(=O)O)CCCCC1 [[^3H]-gabapentin]	no direct binding	1.43	0.24 ± 0.02 pmol/mg protein	1.49 ± 0.10	0.37 ± 0.06 pmol/mg protein	1.45 ± 0.05	0.68 ± 0.12 pmol/mg protein	1.33 ± 0.07	117 nM and 190 nM	0.46 pmol/mg protein	affinity similar to WT α2δ-1	no ^3H-gabapentin binding	–
NCC1(CC(=O)O)CCCCC1 [gabapentin]	–	–	–	–	–	–	–	–	–	–	–	–	inhibit co-immunoprecipitation
